Several values for one entry are separate records, joined by “and”; a condition that tells them apart may be missing. Equal entries are not always repeated. Entries after “also recorded” stand apart in the source; their conditions may differ. Where two headings read alike, the source gives them in different places.
Legend:
Aedes albopictus [1] = test: Effective dose / protection efficacy, human-bait technique; type: in vivo
Aedes albopictus [2] = test: Protection time at 0.17 mg/cm2, human-bait technique; type: in vivo; settings: for pest or weed control at 0.17 mg/cm2, 0.17 mg/cm2: Aedes albopictus, topical, read-out: Protection time PE%
Outline: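 Human-bait test with 100 μL of 5% ethanol solution applied to skin (0.17 mg/cm2); ethanol-treated hand as negative control. Repellency checked hourly up to 8 h on up to 8 volunteers; protection time taken as mean time with >95% protection, complete protection time estimated by Kaplan–Meier.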

HaCaT cells = test: Cytotoxicity on human keratinocytes (MTS); type: cell-based; settings: 82 μg/mL, 24 h
Method: HaCaT cells were cultured in 5% CO2 at 37 °C in Dulbecco’s modified Eagle’s medium (DMEM), supplemented with 10% fetal bovine serum (FBS), 1% L-glutamine ([…]), and 1% penicillin–streptomycin (Thermo Fisher Scientific, Rodano, Milan, Italy). […] Experiments were performed in triplicate.

Caco-2 monolayer = test: Transwell permeation test; type: in vitro ADME; settings: 82 μg/mL apical, 3 h
Method: To evaluate the possibility of absorption after topical application, we tested the permeation through a Caco-2 monolayer for those compounds best performing in terms of protection time and cytotoxicity. The colorectal adenocarcinoma cell line Caco-2 was purchased from ATCC and cultured in DMEM with 20% FBS, L-glutamine (2 mM), and 1% penicillin–streptomycin 100 U/mL (Thermo Fisher Scientific, Rodano, Milan, Italy) in 5% CO2 at 37 °C.
For the permeation studies, Caco-2 cells, a model of epithelial cells, were seeded into 12-well PET Transwell plates (1.13 cm^2 growth surface area and pore size 0.4 μm, Greiner Bio-One, Milan, Italy) at a density of 2 × 10^5 cells/cm^2 and grown for 21 days to form a confluent monolayer. The integrity of the cellular barrier was then assessed using Lucifer Yellow (LY) permeability test, before the experiments.[33]
After washing, the monolayers were preincubated for 20 min at 37 °C with 0.5 and 1.5 mL of the incubation medium, HBSS/HEPES 25 mM in the apical and basolateral sides, respectively. […] At the end of the experiment, the layer integrity was re-evaluated. […]
One hundred microliters of the collected media was extracted in 100 μL of heptane by vortexing the vial for 2 min; 70 μL of this solution was recovered; and 1 μL was injected in a 7820 GC system-5977B MSD system and analyzed under the same conditions reported in paragraph 2.2. […]

RAW 264.7 = test: Immunogenicity on murine macrophages (nitric oxide release); type: cell-based; settings: RAW264.7, 82 μg/mL, 6 h
Method: Cells were cultured in DMEM, with 10% FBS, 1% L-glutamine (2 mM), and 1% penicillin–streptomycin 100 U/mL at 37 °C in an atmosphere containing 5% CO2. RAW264.7 were seeded (1 × 10^5 cells/well) and exposed to five derivatives or Icaridin, at 82 μg/mL or to LPS (1 μg/mL) as a positive control, for 3 and 6 h. After that, nitric oxide release was determined in the culture media as previously described.[32] Experiments were performed in triplicate.

Compound `OCC1COC2(CCCCCCC2)O1` (stereo not shown) [12a] has a pest or weed control at 0.081 µg/cm2, 0.081 µg/cm2 (Aedes albopictus [1]; Aedes albopictus, topical, 0.081 µg/cm2, read-out: Protection efficacy PE%) of 46.3%, a pest or weed control at 0.17 µg/cm2, 0.17 µg/cm2 (Aedes albopictus [1]; Aedes albopictus, topical, 0.17 µg/cm2, read-out: Protection efficacy PE%) of 58.9% and a pest or weed control at 0.33 µg/cm2, 0.33 µg/cm2 (Aedes albopictus [1]; Aedes albopictus, topical, 0.33 µg/cm2, read-out: Protection efficacy PE%) of 62.2%. For the same compound, the pest or weed control at 0.5 µg/cm2, 0.5 µg/cm2 (Aedes albopictus [1]; Aedes albopictus, topical, 0.5 µg/cm2, read-out: Protection efficacy PE%) was 87%, the pest or weed control at 0.83 µg/cm2, 0.83 µg/cm2 (Aedes albopictus [1]; Aedes albopictus, topical, 0.83 µg/cm2, read-out: Protection efficacy PE%) was 90.7% and the pest or weed control at 1.7 µg/cm2, 1.7 µg/cm2 (Aedes albopictus [1]; Aedes albopictus, topical, 1.7 µg/cm2, read-out: Protection efficacy PE%) was 100%. The pest or weed control at 8.3 µg/cm2, 8.3 µg/cm2 (Aedes albopictus [1]; Aedes albopictus, topical, 8.3 µg/cm2, read-out: Protection efficacy PE%) was 100%, the pest or weed control at 16.7 µg/cm2, 16.7 µg/cm2 (Aedes albopictus [1]; Aedes albopictus, topical, 16.7 µg/cm2, read-out: Protection efficacy PE%) was 100% and the pest or weed control at 83.3 µg/cm2, 83.3 µg/cm2 (Aedes albopictus [1]; Aedes albopictus, topical, 83.3 µg/cm2, read-out: Protection efficacy PE%) was 100%. The “100% PE” value (Aedes albopictus [1]; Table S1) was 1.7 µg/cm2, the “Protection efficacy (dose to obtain complete protection (100%) from bite attempts)” value (Aedes albopictus [1]; applied on skin of volunteers, 3 min exposure) was 1.7 μg/cm^2 and the pest or weed control at 0.17 mg/cm2, 0.17 mg/cm2 (Aedes albopictus [2]; 0.17mg/cm2, 1 h) was 100%. For the same compound, the pest or weed control at 0.17 mg/cm2, 0.17 mg/cm2 (Aedes albopictus [2]; 0.17mg/cm2, 2 h) was 100%, the pest or weed control at 0.17 mg/cm2, 0.17 mg/cm2 (Aedes albopictus [2]; 0.17mg/cm2, 3 h) was 100% and the pest or weed control at 0.17 mg/cm2, 0.17 mg/cm2 (Aedes albopictus [2]; 0.17mg/cm2, 4 h) was 100%. It also gave a pest or weed control at 0.17 mg/cm2, 0.17 mg/cm2 (Aedes albopictus [2]; 0.17mg/cm2, 5 h) of 100%, a pest or weed control at 0.17 mg/cm2, 0.17 mg/cm2 (Aedes albopictus [2]; 0.17mg/cm2, 6 h) of 97.1% and a pest or weed control at 0.17 mg/cm2, 0.17 mg/cm2 (Aedes albopictus [2]; 0.17mg/cm2, 7 h) of 96.9%. The pest or weed control at 0.17 mg/cm2, 0.17 mg/cm2 (Aedes albopictus [2]; 0.17mg/cm2, 8 h) was 100%, the “Average PT >95% (% coefficient of variation)” value (Aedes albopictus [2]; at the dose of 0.17mg/cm2) was 480 (0) min and the “Estimated 100% PT (complete protection time, mean±SE)” value (Aedes albopictus [2]; at the dose of 0.17mg/cm2, Kaplan–Meier estimate) was 380 ± 20 min. The “Protection time (95% protection)” value (Aedes albopictus [2]; dose of 0.17 mg/cm^2, tests ended after 8 h) was 8 h, the survival of keratocytes (HaCaT cells) was > 88% and 100% and the “permeability value lower compared to Icaridin” value (Caco-2 monolayer) was 44%. The “immunogenicity (nitric oxide release / nitrite production), in words” value (RAW 264.7) was “did not exhibit immunogenicity; also recorded: indistinguishable from the negative control”.

Reference: publication PMC9896555, “Cyclic Acetals as Novel Long-Lasting Mosquito Repellents” (Journal of Agricultural and Food Chemistry, 2023)
